Test results from patent US5863913A, “Aromatic compound and pharmaceutical composition” (Kureha Chemical Industry Co., Ltd., priority 1996, dated 1999).

Key:
[1] = molecular target: T1, angiotensin II receptor subtype 2 (AT2) (Bos taurus, UniProt G5E6F7); test: Binding to receptors: angiotensin II receptor subtype 2 (AT2); conditions: bovine cerebellar cortex, tracer 125I-Tyr4-angiotensin II
T1 construct: receptor : from cerebellar cortex in bovine; from tissue; host or cells: bovine cerebellar cortex
T1 sequence (G5E6F7 1-362): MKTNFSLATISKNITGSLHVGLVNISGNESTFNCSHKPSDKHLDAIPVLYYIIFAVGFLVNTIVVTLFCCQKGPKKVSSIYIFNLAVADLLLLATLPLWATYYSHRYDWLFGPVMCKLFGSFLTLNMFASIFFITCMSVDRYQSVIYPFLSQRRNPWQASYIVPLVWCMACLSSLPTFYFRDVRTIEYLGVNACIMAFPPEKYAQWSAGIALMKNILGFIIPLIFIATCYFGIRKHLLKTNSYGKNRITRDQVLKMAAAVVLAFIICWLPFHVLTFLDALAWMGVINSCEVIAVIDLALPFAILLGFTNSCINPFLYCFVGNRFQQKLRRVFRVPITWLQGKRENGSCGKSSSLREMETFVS
Procedure: (§1) In this Example, the affinity to the angiotensin II receptor subtype 1 or subtype 2 was evaluated by a binding assay in accordance with the method described in Biochem. Pharmacol., 33, 4057-4062 (1984).
(§2) Specifically, the measurement of the total binding in the presence of each drug was performed as follows:
(§3) A mixture (final volume=0.25 ml) of a drug in a given concentration (the drug was dissolved in DMSO, and diluted to a double volume with a buffer attached to a drug discovery system to prepare a sample for the assay; 0.025 ml), a tracer (0.025 ml), and receptors (0.2 ml) was incubated [in the case of the angiotensin II receptor subtype 1 (AT1), at room temperature for 3 hours, and in the case of the subtype 2 (AT2), at 37° C. for 1 hour]. Then, the reaction mixture was filtered with suction (GF/C filter was used in AT1, and GF/B filter was used in AT2). The filter papers after filtration with suction (the tracer bound to the receptors) were counted by a γ-well counter (ARC-500, Aloka). The non-specific bindings were measured by repeating the above method, except that a large excess amount of a displacer was added. The specific binding of the drug in the given concentration was calculated by subtracting the non-specific binding from the total binding, respectively.
In AT1 and AT2, the percentages found to inhibit the bindings of radioactive ligands (tracer) to receptors by the drugs to be tested (IC50 value of concentration to show 50% inhibition, or binding inhibition % in 100 μM) were measured, using the drugs to be tested and control drugs in the given concentration.
receptor : from cerebellar cortex in bovine
tracer : ^125 ITyr^4angiotensin II
control drug : angiotensin II (human)
(displacer) : angiotensin II (human)

[2] = molecular target: T2, angiotensin II receptor subtype 1 (AT1) (Oryctolagus cuniculus, UniProt P34976); test: Binding to receptors: angiotensin II receptor subtype 1 (AT1); set-up: species or system rabbits (adrenal glands); conditions: rabbit adrenal glands, tracer 3H-angiotensin II
T2 construct: receptor : from adrenal glands in rabbits; from tissue; host or cells: rabbit adrenal glands
T2 sequence (P34976 1-359): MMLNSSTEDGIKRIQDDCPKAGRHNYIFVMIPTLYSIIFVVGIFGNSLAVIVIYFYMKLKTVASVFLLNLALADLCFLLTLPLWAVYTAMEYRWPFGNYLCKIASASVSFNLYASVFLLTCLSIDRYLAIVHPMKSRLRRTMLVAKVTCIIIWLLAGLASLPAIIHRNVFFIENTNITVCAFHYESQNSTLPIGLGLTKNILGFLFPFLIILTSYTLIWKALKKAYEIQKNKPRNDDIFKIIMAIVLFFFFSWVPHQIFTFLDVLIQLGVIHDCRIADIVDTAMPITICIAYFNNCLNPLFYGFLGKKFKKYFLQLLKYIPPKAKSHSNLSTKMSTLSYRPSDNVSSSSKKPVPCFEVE
Procedure: as §1, §2, §3
receptor : from adrenal glands in rabbits
tracer : ^3 Hangiotensin II

[3] = system: kidney disease model rats; test: Renal function indicatory value in kidney disease model rats; type: in vivo, Sprague-Dawley female rats; conditions: 20 mg/kg/day with drinking water, six weeks; for Creatinine clearance: 24 hours urine, control 0.22; for Creatinine / Blood urea nitrogen: serum; for Creatinine: control 2.0; for Blood urea nitrogen: control 100
Procedure: (§4) The kidney disease model rats were prepared by a ligature of branches of renal artery in accordance with a conventional method. Namely, the left hilum renalis of Sprague-Dawley female rats was exposed under anesthesia, and one of four secondary branches of the renal artery was left unligated, while the remaining three branches were ligated, respectively. After a week, the hilum renalis (artery, vein, and ureter) of the right kidney were further ligated to thereby prepare rats whose renal function was lowered to approximately 1/8 of the normal function. Each group consisted of eight rats. The drugs to be tested (20 mg/kg) were administered to each administering group, and only water was administered to a control group. Two days after the administration, the systolic blood pressure was measured by the tail cuff method using a blood pressure measuring apparatus (UR5000; Ueda).
The rats in each group were allowed to freely take up food. […] To the rats in the control group, only water was administered every day. After six weeks, 0.2 ml of blood was collected from the carotid artery of the rats under anesthesia, and centrifuged to obtain serum. Using 25 μl of the serum, the serum creatinine (Scr) was measured by a creatinine analytical instrument (Beckman). Using 10 μl of the serum, the blood urea nitrogen (BUN) was measured by a BUN analytical instrument (Beckman). The creatinine clearance was evaluated as follows:
After the serum creatinine measurement, rats were placed in urinary metabolic cages for 24 hours to collect urine. A urinary creatine concentration (Ucr) was measured by a creatinine analytical instrument, and a total volume of urination (Uvol) was also measured. The creatinine clearance (CCr) was calculated by the following formula: [formula]

[4] = system: kidney disease model rats; test: Survival time of kidney diseased animals; type: in vivo, Sprague-Dawley female rats; conditions: 20 mg/kg/day with drinking water, observation period eight weeks (upper limit); control 5.0
Procedure: as §4, with “The compounds of the present invention and the reference substance were administered with drinking water to kidney disease model rats, and the action of lowering the blood pressure was observed. The kidney” for “The kidney”
The kidney disease model rats were prepared as in Example 54. Twenty-two groups (8 rats per group) were prepared in a manner such that there was no major difference between the groups in the serum creatinine value and the blood urea nitrogen value indicating renal function. The rats in each group were allowed to freely take up food. […] To the rats in the control group, only water was administered every day. If kidney diseases are aggravated, the rat will die of uremia. Thus, the survival time was observed as a comprehensive indication of the improvement of the effect on the kidney diseases. The observation period was eight weeks. Thus if all rats survived, the average survival time is eight weeks, and is an upper limit.

Structure (SMILES) | inhibition at 100 µM [1] | inhibition at 100 µM [2] | Creatinine clearance [3] | Creatinine [3] | Blood urea nitrogen [3] | Average survival time [4]
CCCCC(=O)N(Cc1ccc(C(=O)OCCCN(C)C)cc1)c1cc(C(=O)N2CCOCC2)ccc1C(C)C [Compound No. 7, 3-N-[[[4-(3'-dimethylamino-1'-propoxycarbonyl)phenyl]methyl]valeramido]-4-i-propylbenzoic acid morpholide] | 0% | 14% | 0.32 mL/min | 1.4 mg/dL | 76 mg/dL | 6.9 weeks
CCCCC(=O)N(Cc1ccc(C(=O)OCCCN(C)C)cc1)c1cc(C(=O)N2CCOCC2)ccc1N(C)C [Compound No. 2, 4-dimethylamino-3-N-[[[4-(3'-dimethylaminopropoxycarbonyl)phenyl]methyl]valeramido]benzoic acid morpholide] | 0% | 14% | 0.33 mL/min | 1.3 mg/dL | 78 mg/dL | 6.9 weeks
CCCCC(=O)N(Cc1ccc(C(=O)OCCN(CC)CC)cc1)c1cc(C(=O)N2CCOCC2)ccc1C(C)C [Compound No. 8, 3-N-[[[4-(2'-diethylaminoethoxycarbonyl)phenyl]methyl]valeramido]-4-i-propylbenzoic acid morpholide] | 0% | 11% | 0.35 mL/min | 1.5 mg/dL | 78 mg/dL | 6.9 weeks
CCCCCCC(=O)N(Cc1ccc(C(=O)O)cc1)c1cc(C(=O)N2CCN(CCC)CC2)ccc1N(C)C [Compound No. 12, 4-dimethylamino-3-N-[[(4-carboxyphenyl)methyl]n-heptanamido]benzoic acid 4'-n-propyl piperazide] | 0% | 0% | 0.35 mL/min | 1.3 mg/dL | 80 mg/dL | 7.0 weeks
CCCCC(=O)N(Cc1ccc(C(=O)O)cc1)c1cc(C(=O)N2CCN(CCC)CC2)ccc1C(C)C [Compound No. 19, 3-[[(4-carboxyphenyl)methyl]valeramido]-4-i-propylbenzoic acid 4'-n-propylpiperazide] | 18% | 11% | 0.33 mL/min | 1.3 mg/dL | 76 mg/dL | 7.2 weeks
CCCCCCC(=O)N(Cc1ccc(C(=O)O)cc1)c1cc(C(=O)N2CCN(C)CC2)ccc1N(C)C [Compound No. 13, 3-[[(4-carboxyohenyl)methyl]n-heptanamido]-4-dimethylaminobenzoic acid 4'-methylpiperazide] | 0% | 0% | 0.32 mL/min | 1.5 mg/dL | 77 mg/dL | 6.9 weeks
CCCCCCC(=O)N(Cc1ccc(C(=O)O)cc1)c1cc(C(=O)N2CCN(CCC)CC2)ccc1C(C)C [Compound No. 20, 3-N-[[(4-carboxyphenyl)methyl]n-heptanamido]-4-i-propylbenzoic acid 4'-n-propylpiperazide] | 0% | 0% | 0.32 mL/min | 1.3 mg/dL | 75 mg/dL | 7.3 weeks
CCCCCCC(=O)N(Cc1ccc(C(=O)O)cc1)c1cc(C(=O)N2CCN(C)CC2)ccc1C(C)C [Compound No. 18, 3-N-[[(4-carboxyphenyl)methyl]n-heptanamido]-4-i-propylbenzoic acid 4'-methylpiperazide] | 9% | 11% | 0.32 mL/min | 1.4 mg/dL | 76 mg/dL | 7.0 weeks
CCCCC(=O)N(Cc1ccc(C(=O)OCCCN)cc1)c1cc(C(=O)N2CCOCC2)ccc1N(C)C [Compound No. 3, 3-N-[[[4-(3'-aminopropoxycarbonyl)phenyl]methyl]valeramido]-4-dimethylaminobenzoic acid morpholide] | 0% | 0% | 0.33 mL/min | 1.3 mg/dL | 78 mg/dL | 6.9 weeks
CCCCC(=O)N(Cc1ccc(C(=O)OCCN2CCOCC2)cc1)c1cc(C(=O)N2CCOCC2)ccc1C(C)C [Compound No. 9, 3-N-[[[4-(2'-morpholinoethoxycarbonyl)phenyl]methyl]valeramido]-i-propylbenzoic acid morpholide] | 0% | 13% | 0.31 mL/min | 1.6 mg/dL | 83 mg/dL | 6.9 weeks
CCCCC(=O)N(Cc1ccc(C(=O)O)cc1)c1cc(C(=O)N2CCN(C)CC2)ccc1C(C)C [Compound No. 15, 3-[[(4-carboxyphenyl)methyl]valeramido]-4-i-propylbenzoic acid 4'-methylpiperazide] | 0% | 0% | 0.26 mL/min | 1.8 mg/dL | 90 mg/dL | 6.1 weeks
